Here are results for 32 compounds from US6063803A, “Octahydropyrrolo-[3,4-c]carbazoles useful as analgesic agents” (Ortho-McNeil Pharmaceutical, Inc., priority 1999, dated 2000).

Counter-ions that a name gives are not always drawn.

The first assay can be described thus: rat air-induced writhing (abdominal constriction) assay. It counts as in vivo, rats. As to conditions: Rattus norvegicus, po. On the procedure: The analgesic activity was determined in another model using rats as the test animal. The procedure was essentially described by P. VonVoightlander et al. in Air-induced Writhing, a Rapid Broad Spectrum Assay for Analgesics, Drug Dev. Res., 2, 577-81, (1982). The test compound or vehicle was administered p.o. (2 mL/kg) and after 30 min, the animals received an i.p. injection of air (10 mL). The animals were placed into individual observation chambers and observed for 30 min for the occurrence of abdominal constriction as defined above. The percent inhibition of this response was calculated as follows. The % inhibition of response, i.e., % analgesia is equal to the number nonresponding drug-treated animals×100 divided by the number of animals in the group. […] This effect lasted for 2-3 hours.
For orientation: In writhing tests, fewer writhes than in controls are read as antinociception.
The term ED50 denotes the dose that gives a 50% effect, or the effect in half of the subjects. Read a high ED50 as a need for a large dose. `COc1cccc(C2(O)CCCCC2CN(C)C)c1` (stereo not shown) [tramadol, reference compound] came in with a median effective dose (ED50) of 1.7 mg/kg.

A further assay can be described thus: mouse hot plate assay (48° C.). It counts as in vivo, mice. As to conditions: Mus musculus, po, 0.5 h. On the procedure: The test was essentially described by N. Eddy and D. Leimbach, Synthetic Analgesics II Dithienylbutenyl- and Dithienylbutylamines, J. Pharmacol. Exp. Ther., 107, 385-93 (1953) and J. O'Callaghan and S. Holtzman, Qualification of the Analgesic Activity of Narcotic Antagonists by a Modified Hot-Plate Procedure, J. Pharmacol. Exp. Ther, 192, 497-505 (1975), with minor modifications. Mice were placed on a heated surface (48° C.) and the time interval (seconds) between placement and a shaking, licking, or tucking of the hind paw was recorded as the predrug latency response. This procedure was repeated 30 minutes after the administration of a test compound (p.o., 10 mL/kg). The percent maximum possible antinociceptive effect (% MPE) was determined using the following formula: % MPE=100×(Test latency-Predrug latency)/(Cutoff time-Predrug Latency), using the predrug latency of each animal and cutoff time established to prevent injury to the animal. The cutoff time was 90s.
The ED50 value and 95% confidence intervals were determined using a computer-assisted linear regression analysis of the dose-response curve, including an analysis of variance test for linearity. Oral dosing of Compound 58 produced an analgesic effect after 15 min. This effect lasted for one hour.
On the technique in general: Thermal pain tests record how soon the animal reacts.
As to `COc1cccc(C2(O)CCCCC2CN(C)C)c1` (stereo not shown) [tramadol, reference compound], the 50% effect level (ED50) was put at a dose of 28.3 mg/kg.

The next assay is described as follows: mouse acetylcholine bromide-induced abdominal constriction assay. Type of assay: in vivo, mice (Male, Cr1:CD-1). As to conditions: Mus musculus. Here is the method: The analgesic activity of compounds of Formula I were determined in the following in vivo assay. The procedure was run essentially as described by H. Collier et al. in B. J. Pharmacol. Chemother., 32: 295-310, 1968, with minor modifications. Mice (Male, Cr1:CD-1, Charles River Laboratories) were used in the following example. The test drugs or appropriate vehicle were administered orally (10 mL/kg, p.o.) or subcutaneously (10 mL/kg, s.c.) and 30 minutes later the animal received an intraperitoneal (i.p.) injection of 5.5 mg/kg acetylcholine bromide. The mice were then placed in glass bell jars and observed for a ten minute observation period for the occurrence of an abdominal constriction response (defined as a wave of constriction and elongation passing caudally along the abdominal wall, accompanied by a twisting of the trunk and followed by extension of the hind limbs). The percent inhibition of this response to antinociceptive stimulus (equated to % analgesia) was calculated as follows: The % inhibition of response, i.e., % analgesia is equal to the number of non-responding drug-treated animals×100 divided by the number of animals in the group.
The ED50 values and their 95% fiducial limits were determined by a computer assisted probit analysis. […] This effect lasted for 4-5 hours.
Table A lists the % inhibition for some compounds of the invention. Unless otherwise indicated the compounds were administered s.c. at 30 mg/kg. [drawing 63]
For `COc1cccc(C2(O)CCCCC2CN(C)C)c1` (stereo not shown) [tramadol, reference compound], the ED50 worked out at 5.4 mg/kg.

The same assay, now with this note: Mus musculus, 0.5 h; 30 mg/kg po; acetylcholine bromide 5.5 mg/kg i.p. 30 min later; read-out: % inhibition @ 30 mg/kg (po).
For `CN1C[C@@H]2CCc3[nH]c4cccc(F)c4c3[C@@H]2C1` (relative stereo) [Compound 44], the responders at 30 mg/kg was 100%.
With `CC(C)N1C[C@@H]2CCc3[nH]c4ccccc4c3[C@@H]2C1` (relative stereo) [Compound 65, (±)-3aα,10cα-4,5,6,10c-Octahydro-2-(1-methylethyl)pyrrolo[3,4-c]carbazole Hydrochloride Hydrate [1.0:1.0:0.13]], the % of mice protected from abdominal constriction (non-responders) at 30 mg/kg amounted to 93%.
Turning to `CN1C[C@@H]2CCc3[nH]c4cc(F)ccc4c3[C@@H]2C1` (relative stereo) [Compound 30, (±)-3aα,10cα-4,5,6,10c-Octahydro-8-fluoro-2-methylpyrrolo[3,4-c]carbazole Fumarate [1:1.5]], the responders at 30 mg/kg came out at 100%.
On to `Cc1cccc2c3c([nH]c12)CC[C@H]1CN(C)C[C@@H]31` (relative stereo) [Compound 40, (±)-3aα,10cα,-1,2,3,3a,4,5,6,10c-octahydro-2,7-dimethylpyrrolo[3,4-c]carbazole], for which the responders at 30 mg/kg stood at 87%.
Consider `CN1C[C@@H]2CCc3[nH]c4ccccc4c3[C@H]2C1` (relative stereo) [Compound 72, (±)-3aα,10cβ-1,2,3,3a,4,5,6,10c-Octahydro-2-methylpyrrolo-[3,4-c]carbazole Fumarate [1.0:0.55]], for which the responders at 30 mg/kg turned out to be 100%.
The same measure, in the same setting: as for `CN1C[C@@H]2CCc3[nH]c4cccc(Cl)c4c3[C@@H]2C1` (relative stereo) [Compound 38], the figure is 87%; as for `C[C@@H]1C[C@H]2CN(C)C[C@H]2c2c1[nH]c1ccccc21` (relative stereo) [Compound 88, (±)-3aα,5α,10cα-4,5,6,10c-Octahydro-2,5-dimethylpyrrolo[3,4-c]carbazole], 93%; as for `CN1C[C@@H]2CCc3[nH]c4c(F)cccc4c3[C@@H]2C1` (relative stereo) [Compound 47], 93%.

Still in this assay, the particulars now being: Mus musculus, sc, 0.5 h; 30 mg/kg s.c.; acetylcholine bromide 5.5 mg/kg i.p. 30 min later; read-out: % inhibition @ 30 mg/kg.
For `CN1C[C@@H]2CCc3[nH]c4ccc(Br)cc4c3[C@@H]2C1` (relative stereo) [Compound 36], the responders at 30 mg/kg came out at 100%.
With `CN1C[C@@H]2CCc3[nH]c4c(Cl)ccc(Cl)c4c3[C@@H]2C1` (relative stereo) [Compound 33], the % of mice protected from abdominal constriction (non-responders) at 30 mg/kg was 33%.
Regarding `C[C@H]1C[C@H]2CN(C)C[C@H]2c2c1[nH]c1ccccc21` (relative stereo) [Compound 89, (±)-3aα,5β,10cα-4,5,6,10c-Octahydro-2,5-dimethylpyrrolo[3,4-c]carbazole], the responders at 30 mg/kg turned out to be 100%.
Regarding `CN1C[C@@H]2CCc3[nH]c4cc(F)cc(F)c4c3[C@@H]2C1` (relative stereo) [Compound 50], the % of mice protected from abdominal constriction (non-responders) at 30 mg/kg was 100%.
`CN1C[C@@H]2CCc3[nH]c4c(Br)cccc4c3[C@@H]2C1` (relative stereo) [Compound 45]: the responders at 30 mg/kg was determined as 73%.
As for `CN1C[C@@H]2CCc3[nH]c4cccc(C(F)(F)F)c4c3[C@@H]2C1` (relative stereo) [Compound 42], the % of mice protected from abdominal constriction (non-responders) at 30 mg/kg was determined as 60%.
Turning to `C[C@@H]1[C@@H]2c3c([nH]c4ccccc34)CC[C@@H]2CN1C` (relative stereo) [Compound 69, (±)-1α,3aβ,10cβ-1,2,3,3a,4,5,6,10c-Octahydro-1,2-dimethylpyrrolo-[3,4-c]carbazole], the responders at 30 mg/kg stood at 100%.
Turning to `CN1CC2CCc3[nH]c4ccccc4c3C2C1` (single isomer, unassigned) [Compound 57], the responders at 30 mg/kg was 100%.
For `CN1C[C@@H]2CCc3[nH]c4c(C(F)(F)F)cccc4c3[C@@H]2C1` (relative stereo) [Compound 48], the % of mice protected from abdominal constriction (non-responders) at 30 mg/kg was found to be 100%.
Take `CN1C[C@@H]2CCc3[nH]c4ccc(F)cc4c3[C@@H]2C1` (relative stereo) [Compound 31]: the responders at 30 mg/kg is 93%.
With `CN1C[C@@H]2CCc3[nH]c4cc(C(F)(F)F)ccc4c3[C@@H]2C1` (relative stereo) [Compound 41], the % of mice protected from abdominal constriction (non-responders) at 30 mg/kg amounted to 100%.
In the case of `CC(C)c1ccc2[nH]c3c(c2c1)[C@@H]1CN(C)C[C@@H]1CC3` (relative stereo) [Compound 39], the % of mice protected from abdominal constriction (non-responders) at 30 mg/kg was 27%.
Still for that read-out and setting: under `COc1cccc2c3c([nH]c12)CC[C@H]1CN(C)C[C@@H]31` (relative stereo) [Compound 32] stands 100%.
For `c1ccc2c3c([nH]c2c1)CC[C@H]1CNC[C@@H]31` (relative stereo) [Compound 64, (±)-3aα,10cα-4,5,6,10c-Octahydropyrrolo[3,4-c]carbazole], the responders at 30 mg/kg stood at 80%.
`CN1C[C@@H]2CCc3[nH]c4cc(Cl)ccc4c3[C@@H]2C1` (relative stereo) [Compound 37]: the responders at 30 mg/kg came to 100%.
On to `Cc1ccc2c3c([nH]c2c1C)CC[C@H]1CN(C)C[C@@H]31` (relative stereo) [Compound 34], for which the % of mice protected from abdominal constriction (non-responders) at 30 mg/kg came out at 100%.
Still for that read-out and setting: as for `CC(C)(C)N1C[C@@H]2CCc3[nH]c4ccccc4c3[C@@H]2C1` (relative stereo) [Compound 53], the figure is 100%.
Turning to `CN1C[C@@H]2CCc3[nH]c4c(Cl)cccc4c3[C@@H]2C1` (relative stereo) [Compound 35], the responders at 30 mg/kg came out at 93%.
Consider `CCc1cccc2c3c([nH]c12)CC[C@H]1CN(C)C[C@@H]31` (relative stereo) [Compound 46], for which the % of mice protected from abdominal constriction (non-responders) at 30 mg/kg turned out to be 100%.
Turning to `CN1C[C@@H]2C(c3ccccc3)Cc3[nH]c4ccccc4c3[C@@H]2C1` (mixture of isomers) [Compound 75, (±)-3aα,10cα-1,2,3,3a,4,5,6,10c-Octahydro-2-methyl-4-phenylpyrrolo-[3,4-c]carbazole Fumarate [1.0:0.55]], the % of mice protected from abdominal constriction (non-responders) at 30 mg/kg is 100%.
With `Cc1cc(C)c2c3c([nH]c2c1)CC[C@H]1CN(C)C[C@@H]31` (relative stereo) [Compound 49], the % of mice protected from abdominal constriction (non-responders) at 30 mg/kg came out at 100%.
On the same count and under the same terms, under `CN1C[C@@H]2CCc3[nH]c4ccc(C#N)cc4c3[C@@H]2C1` (relative stereo) [Compound 73, (±)-3aα,10cα-1,2,3,3a,4,5,6,10c-Octahydro-9-cyano-2-methylpyrrolo-[3,4-c]carbazole] stands 100%.
For the compound `C=CCN1C[C@@H]2CCc3[nH]c4ccccc4c3[C@@H]2C1` (relative stereo) [Compound 66, (±)-3aα,10cα-1,2,3,3a,4,5,6,10c-Octahydro-2-(propenyl)pyrrolo[3,4-c]carbazole Fumarate [1:0.6]], the % of mice protected from abdominal constriction (non-responders) at 30 mg/kg turned out to be 100%.
